In US12091423B2, “Substituted 3,4,12,12a-tetrahydro-1H-[1,4]oxazino[3,4-c]pyrido[2,1-f][1,2,4]triazine-6,8-dione, pharmaceutical composition, method for the production and use thereof” (VIRIOM, INC., priority 2019, dated 2024):

Test system: influenza A/California/2009 (H1N1)
Assay: microbe, parasite or virus in culture
Assay type: cell-based
Conditions: H1N1, MDCK

`O=C1c2c(O)c(=O)ccn2N([C@@H]2c3ccc(F)c(F)c3CSc3ccsc32)[C@@H]2COCCN12` [1.3.2, (12aR)-7-hydroxy-12-[(10R)-6,7-difluoro-5,10-dihydrothieno[3,2-c][2]benzothiepin-10-yl]-3,4,12,12a-tetrahydro-1H-[1,4]oxazino[3,4-c]pyrido[2,1-f][1,2,4]triazine-6,8-dione] was tested, and the EC50 was < 0.3 nM.
In the case of `O=C1c2c(O)c(=O)ccn2N([C@H](c2ccccc2)c2ccc(F)c(F)c2)[C@@H]2COCCN12` [1.8.2, (12aR)-7-hydroxy-12-[(R)-(3,4-difluorophenyl)(phenyl)methyl]-3,4,12,12a-tetrahydro-1H-[1,4]oxazino[3,4-c]pyrido[2,1-f][1,2,4]triazine-6,8-dione], the EC50 is reported as 2 to 4 nM.
`O=C1c2c(O)c(=O)ccn2N([C@@H](c2ccccc2)c2ccc(F)c(F)c2)[C@@H]2COCCN12` [1.9.2, (12aR)-7-hydroxy-12-[(S)-(3,4-difluorophenyl)(phenyl)methyl]-3,4,12,12a-tetrahydro-1H-[1,4]oxazino[3,4-c]pyrido[2,1-f][1,2,4]triazine-6,8-dione] showed an EC50 of 2 to 4 nM.
`O=C1c2c(O)c(=O)ccn2N(C(c2ccccc2)c2ccccc2)[C@@H]2COCCN12` [1.13.2, (12aR)-7-hydroxy-12-diphenylmethyl-3,4,12,12a-tetrahydro-1H-[1,4]oxazino[3,4-c]pyrido[2,1-f][1,2,4]triazine-6,8-dione] gave an EC50 of 2 to 4 nM.
Compound `O=C1c2c(O)c(=O)ccn2N(C(c2ccc(F)cc2)c2ccc(F)cc2)[C@@H]2COCCN12` [1.14.2, (12aR)-7-hydroxy-12-[bis(4-fluorophenyl)methyl]-3,4,12,12a-tetrahydro-1H-[1,4]oxazino[3,4-c]pyrido[2,1-f][1,2,4]triazine-6,8-dione] has an EC50 of 2 to 4 nM.
